Test results as given in patent publication US20250230171A1 (MOMA Therapeutics, Inc., priority 2023, published 2025).
Read-outs that look alike come from different tables or passages of the source.

Key:
[1] = target: biotinylated Avi-POLθ[2-894] (Homo sapiens (Human), UniProt O75417); experiment: POLθ ATPase assay (ADP-Glo); details: POLθ ATPase, ADP-Glo; n=2; read-out: Biochemical ATPase ADPGlo IC50
DLD1 BRCA2 (−/−) cells = experiment: 7-day cell viability assay (CellTiter-Glo), DLD1 BRCA2 (−/−); assay type: cell-based, human; details: 7-day CellTiter-Glo, n=2, read-out: Viability IC50 (uM) DLD1 BRCA2 null
Method in brief: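 7-day growth assay in DLD1 cells with or without BRCA2; seeding densities chosen to keep log-linear growth. Compound: 10 uM top, 3-fold, 9 points. Endpoint: CTG ATP luminescence at RT.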

DLD1 WT cells = experiment: 7-day cell viability assay (CellTiter-Glo), DLD1 parental (WT); assay type: cell-based, human; details: 7-day CellTiter-Glo, n=2

Chain of biotinylated Avi-POLθ[2-894] (O75417 2-894): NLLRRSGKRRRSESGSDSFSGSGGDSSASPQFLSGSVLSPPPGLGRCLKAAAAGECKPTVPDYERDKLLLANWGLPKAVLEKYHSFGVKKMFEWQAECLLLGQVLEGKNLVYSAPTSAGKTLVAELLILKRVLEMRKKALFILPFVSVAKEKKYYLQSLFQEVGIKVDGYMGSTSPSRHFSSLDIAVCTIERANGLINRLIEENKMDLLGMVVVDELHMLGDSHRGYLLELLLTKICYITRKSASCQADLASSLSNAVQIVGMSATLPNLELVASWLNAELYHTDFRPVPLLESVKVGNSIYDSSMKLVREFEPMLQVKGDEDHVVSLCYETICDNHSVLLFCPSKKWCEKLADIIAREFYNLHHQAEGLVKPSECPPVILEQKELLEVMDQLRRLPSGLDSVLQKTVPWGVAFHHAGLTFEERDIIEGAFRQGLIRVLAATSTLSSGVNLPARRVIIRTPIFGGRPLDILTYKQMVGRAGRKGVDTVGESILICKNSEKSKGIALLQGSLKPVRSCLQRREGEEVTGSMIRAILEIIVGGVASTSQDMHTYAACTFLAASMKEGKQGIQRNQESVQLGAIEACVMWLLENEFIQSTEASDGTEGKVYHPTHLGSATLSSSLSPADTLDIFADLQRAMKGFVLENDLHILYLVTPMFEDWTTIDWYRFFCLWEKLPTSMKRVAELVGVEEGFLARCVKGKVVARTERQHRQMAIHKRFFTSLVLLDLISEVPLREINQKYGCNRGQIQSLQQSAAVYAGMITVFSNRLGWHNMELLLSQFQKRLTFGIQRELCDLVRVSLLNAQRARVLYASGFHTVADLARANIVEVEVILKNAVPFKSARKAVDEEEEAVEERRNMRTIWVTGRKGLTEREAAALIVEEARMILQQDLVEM

Row | Compound | IC50 [1] | IC50 (DLD1 BRCA2 (−/−) cells; Homo sapiens, DLD-1, 168 h) | IC50 (DLD1 WT cells; Homo sapiens, DLD-1, 168 h) | IC50 (DLD1 BRCA2 (−/−) cells) | IC50 (DLD1 WT cells)
1 | COc1ccc(C(=O)N2Cc3nc(NC(=O)c4cnc(C)cc4-c4cc(Cl)ncc4OC)sc3C2)c(OC)n1 | 0.001 to 0.015 µM | 0.001 to 0.1 µM | 5 to 10 µM |  | 
2 | COc1cnc(Cl)cc1-c1cc(C)ncc1C(=O)Nc1nc2c(s1)CN(C(=O)c1cnc(OC)c(Cl)c1)C2 | 0.001 to 0.015 µM | 0.001 to 0.1 µM | 5 to 10 µM |  | 
3 | COc1ccc(C(=O)N2Cc3nc(NC(=O)c4cnc(C)cc4-c4cc(Cl)ncc4OC)sc3C2)cn1 | 0.001 to 0.015 µM | 0.001 to 0.1 µM | ≥ 10 µM |  | 
4 | COc1cc(Cl)c(C(=O)N2Cc3nc(NC(=O)c4cnc(C)cc4-c4cc(Cl)ncc4OC)sc3C2)cn1 | 0.001 to 0.015 µM | 0.001 to 0.1 µM | ≥ 10 µM |  | 
5 | COc1cnc(Cl)cc1-c1cc(C)ncc1C(=O)Nc1nc2c(s1)CN(C(=O)c1ccc(OC(F)(F)F)nc1C)C2 [Example 1018, 2′-chloro-5′-methoxy-6-methyl-N-(5-(2-methyl-6-(trifluoromethoxy)nicotinoyl)-5,6-dihydro-4H-pyrrolo[3,4-d]thiazol-2-yl)-[4,4′-bipyridine]-3-carboxamide] |  | 0.001 to 0.1 µM | ≥ 10 µM |  | 
6 | COc1cnc(Cl)cc1-c1cc(C)ncc1C(=O)Nc1nc2c(s1)CN(C(=O)c1c(C)cc(C(F)(F)F)nc1OC)C2 [Example 1019, 2′-chloro-5′-methoxy-N-(5-(2-methoxy-4-methyl-6-(trifluoromethyl)nicotinoyl)-5,6-dihydro-4H-pyrrolo[3,4-d]thiazol-2-yl)-6-methyl-[4,4′-bipyridine]-3-carboxamide] |  | 0.001 to 0.1 µM | ≥ 10 µM |  | 
7 | COc1cnc(Cl)cc1-c1cc(C)ncc1C(=O)Nc1nc2c(s1)CN(C(=O)c1nc(C)c(C(F)F)c(C)c1Cl)C2 [Example 1020, 2′-chloro-N-(5-(3-chloro-5-(difluoromethyl)-4,6-dimethylpicolinoyl)-5,6-dihydro-4H-pyrrolo[3,4-d]thiazol-2-yl)-5′-methoxy-6-methyl-[4,4′-bipyridine]-3-carboxamide] |  | 0.001 to 0.1 µM | ≥ 10 µM |  | 
8 | COc1cnc(Cl)cc1-c1cc(C)ncc1C(=O)Nc1nc2c(s1)CN(C(=O)c1nc(C(F)(F)F)c(C#N)cc1C)C2 [Example 1022, 2′-chloro-N-(5-(5-cyano-3-methyl-6-(trifluoromethyl)picolinoyl)-5,6-dihydro-4H-pyrrolo[3,4-d]thiazol-2-yl)-5′-methoxy-6-methyl-[4,4′-bipyridine]-3-carboxamide] |  | 0.001 to 0.1 µM | ≥ 10 µM |  | 
9 | COc1cnc(Cl)c(F)c1-c1cc(C)ncc1C(=O)Nc1nc2c(s1)CN(C(=O)c1ccc(C(F)(F)F)nc1OC)C2 [Example 1023, 2′-chloro-3′-fluoro-5′-methoxy-N-(5-(2-methoxy-6-(trifluoromethyl)nicotinoyl)-5,6-dihydro-4H-pyrrolo[3,4-d]thiazol-2-yl)-6-methyl-[4,4′-bipyridine]-3-carboxamide] |  | 0.001 to 0.1 µM | ≥ 10 µM |  | 
10 | COc1nnc(C(F)F)cc1-c1cc(C)ncc1C(=O)Nc1nc2c(s1)CN(C(=O)c1nccc(C(F)(F)F)c1C)C2 [Example 1024, 4-(6-(difluoromethyl)-3-methoxypyridazin-4-yl)-6-methyl-N-(5-(3-methyl-4-(trifluoromethyl)picolinoyl)-5,6-dihydro-4H-pyrrolo[3,4-d]thiazol-2-yl)nicotinamide] |  | 0.001 to 0.1 µM | ≥ 10 µM |  | 
11 | COc1nc(C(F)(F)F)ccc1C(=O)N1Cc2nc(NC(=O)c3cnc(C)cc3-c3cc(C(F)F)nnc3OC)sc2C1 [Example 1025, 4-(6-(difluoromethyl)-3-methoxypyridazin-4-yl)-N-(5-(2-methoxy-6-(trifluoromethyl)nicotinoyl)-5,6-dihydro-4H-pyrrolo[3,4-d]thiazol-2-yl)-6-methylnicotinamide] |  | 0.001 to 0.1 µM | ≥ 10 µM |  | 
12 | COc1nnc(C(F)F)cc1-c1cc(C)ncc1C(=O)Nc1nc2c(s1)CN(C(=O)c1nccc(C(F)(F)F)c1F)C2 [Example 1026, 4-(6-(difluoromethyl)-3-methoxypyridazin-4-yl)-N-(5-(3-fluoro-4-(trifluoromethyl)picolinoyl)-5,6-dihydro-4H-pyrrolo[3,4-d]thiazol-2-yl)-6-methylnicotinamide] |  | 0.001 to 0.1 µM | ≥ 10 µM |  | 
13 | COc1cnc(Cl)cc1-c1cc(C)ncc1C(=O)Nc1nc2c(s1)CN(C(=O)c1nc(C)c(OC(F)F)cc1C)C2 [Example 1027, 2′-chloro-N-(5-(5-(difluoromethoxy)-3,6-dimethylpicolinoyl)-5,6-dihydro-4H-pyrrolo[3,4-d]thiazol-2-yl)-5′-methoxy-6-methyl-[4,4′-bipyridine]-3-carboxamide] |  | 0.001 to 0.1 µM | ≥ 10 µM |  | 
14 | COc1cnc(Cl)cc1-c1cc(C)ncc1C(=O)Nc1nc2c(s1)CN(C(=O)c1nc(C)c(OC(F)(F)F)cc1C)C2 [Example 1028, 2′-chloro-N-(5-(3,6-dimethyl-5-(trifluoromethoxy)picolinoyl)-5,6-dihydro-4H-pyrrolo[3,4-d]thiazol-2-yl)-5′-methoxy-6-methyl-[4,4′-bipyridine]-3-carboxamide] |  | 0.001 to 0.1 µM | ≥ 10 µM |  | 
15 | COc1cnc(C)c(F)c1-c1cc(C)ncc1C(=O)Nc1nc2c(s1)CN(C(=O)c1ccc(C(F)(F)F)nc1OC)C2 [Example 1029, 3′-fluoro-5′-methoxy-N-(5-(2-methoxy-6-(trifluoromethyl)nicotinoyl)-5,6-dihydro-4H-pyrrolo[3,4-d]thiazol-2-yl)-2′,6-dimethyl-[4,4′-bipyridine]-3-carboxamide] |  | 0.001 to 0.1 µM | ≥ 10 µM |  | 
16 | COc1cc(C)c(C(=O)N2Cc3nc(NC(=O)c4cnc(C)cc4-c4cc(Cl)ncc4OC)sc3C2)c(Cl)n1 [Example 1030, 2′-chloro-N-(5-(2-chloro-6-methoxy-4-methylnicotinoyl)-5,6-dihydro-4H-pyrrolo[3,4-d]thiazol-2-yl)-5′-methoxy-6-methyl-[4,4′-bipyridine]-3-carboxamide] |  | 0.001 to 0.1 µM | ≥ 10 µM |  | 
17 | COc1nc(C(F)(F)F)ccc1C(=O)N1Cc2nc(NC(=O)c3cnc(C)cc3-c3cc(C(F)F)cnc3OC)sc2C1 [Example 1032, 5-(difluoromethyl)-2-methoxy-N-(5-(2-methoxy-6-(trifluoromethyl)nicotinoyl)-5,6-dihydro-4H-pyrrolo[3,4-d]thiazol-2-yl)-6′-methyl-[3,4′-bipyridine]-3′-carboxamide] |  | 0.001 to 0.1 µM | ≥ 10 µM |  | 
18 | COc1cnc(Cl)cc1-c1cc(C)ncc1C(=O)Nc1nc2c(s1)CN(C(=O)c1ccc(C(F)(F)F)nc1OC)C2C (centres unmarked) [Example 1033, 2′-chloro-5′-methoxy-N-(5-(2-methoxy-6-(trifluoromethyl)nicotinoyl)-4-methyl-5,6-dihydro-4H-pyrrolo[3,4-d]thiazol-2-yl)-6-methyl-[4,4′-bipyridine]-3-carboxamide] |  | 0.001 to 0.1 µM | ≥ 10 µM |  | 
19 | COc1ncc(Cl)cc1-c1cc(C)ncc1C(=O)Nc1nc2c(s1)CN(C(=O)c1nccc(C(F)(F)F)c1OC)C2 [Example 1034, 5-chloro-2-methoxy-N-(5-(3-methoxy-4-(trifluoromethyl)picolinoyl)-5,6-dihydro-4H-pyrrolo[3,4-d]thiazol-2-yl)-6′-methyl-[3,4′-bipyridine]-3′-carboxamide] |  | 0.001 to 0.1 µM | ≥ 10 µM |  | 
20 | COc1ncc(Cl)cc1-c1cc(C)ncc1C(=O)Nc1nc2c(s1)CN(C(=O)c1ccc(C(F)(F)F)c(OC)n1)C2 [Example 1035, 5-chloro-2-methoxy-N-(5-(6-methoxy-5-(trifluoromethyl)picolinoyl)-5,6-dihydro-4H-pyrrolo[3,4-d]thiazol-2-yl)-6′-methyl-[3,4′-bipyridine]-3′-carboxamide] |  | 0.001 to 0.1 µM | ≥ 10 µM |  | 
21 | COc1ccc(C(=O)N2Cc3nc(NC(=O)c4cnc(C)cc4-c4cc(Cl)ncc4OC)sc3C2)c(F)n1 [Example 1038, 2′-chloro-N-(5-(2-fluoro-6-methoxynicotinoyl)-5,6-dihydro-4H-pyrrolo[3,4-d]thiazol-2-yl)-5′-methoxy-6-methyl-[4,4′-bipyridine]-3-carboxamide] |  | 0.1 to 0.25 µM | ≥ 10 µM |  | 
22 | COc1cnc(Cl)cc1-c1cc(C)ncc1C(=O)Nc1nc2c(s1)CN(C(=O)c1ccc(OC(F)(F)F)nc1OC)C2 [Example 1039, 2′-chloro-5′-methoxy-N-(5-(2-methoxy-6-(trifluoromethoxy)nicotinoyl)-5,6-dihydro-4H-pyrrolo[3,4-d]thiazol-2-yl)-6-methyl-[4,4′-bipyridine]-3-carboxamide] |  | 0.001 to 0.1 µM | ≥ 10 µM |  | 
23 | COc1ncc(Cl)cc1-c1cc(C)ncc1C(=O)Nc1nc2c(s1)CN(C(=O)c1nc(OC)c(C(F)(F)F)cc1C)C2 [Example 1044, 5-chloro-2-methoxy-N-(5-(6-methoxy-3-methyl-5-(trifluoromethyl)picolinoyl)-5,6-dihydro-4H-pyrrolo[3,4-d]thiazol-2-yl)-6′-methyl-[3,4′-bipyridine]-3′-carboxamide] |  | 0.001 to 0.1 µM | ≥ 10 µM |  | 
24 | COc1nc(C(F)(F)F)ccc1C(=O)N1Cc2nc(NC(=O)c3cnc(C)cc3-c3cc(C#N)cnc3OC)sc2C1 [Example 1048, 5-cyano-2-methoxy-N-(5-(2-methoxy-6-(trifluoromethyl)nicotinoyl)-5,6-dihydro-4H-pyrrolo[3,4-d]thiazol-2-yl)-6′-methyl-[3,4′-bipyridine]-3′-carboxamide] |  | 0.001 to 0.1 µM | ≥ 10 µM |  | 
25 | N-(5-(2-Chloro-3-(difluoromethyl)benzoyl)-5,6-dihydro-4H-pyrrolo[3,4-d]thiazol-2-yl)-4-(5-cyano-2-methoxyphenyl)-6-methylnicotinamide [Example 443] |  |  |  | 0.001 to 0.1 µM | ≥ 10 µM
26 | N-(5-(2-Methoxy-6-(trifluoromethyl)nicotinoyl)-5,6-dihydro-4H-pyrrolo[3,4-d]thiazol-2-yl)-4-(6-methoxyimidazo[1,5-a]pyridin-7-yl)-6-methylnicotinamide [Example 568] |  |  |  | 0.001 to 0.1 µM | ≥ 10 µM
